This passage reports Activity, V0 and viability results from ChEMBL document CHEMBL4811256, “Synthesis and evaluation of multi-target-directed ligands with BACE-1 inhibitory and Nrf2 agonist activities as potential agents against Alzheimer's disease” (Eur J Med Chem, 2021).

The target of series [1] is T1, Nuclear factor erythroid 2-related factor 2 (Mus musculus) (UniProt Q60795).
T1 sequence (whole entry): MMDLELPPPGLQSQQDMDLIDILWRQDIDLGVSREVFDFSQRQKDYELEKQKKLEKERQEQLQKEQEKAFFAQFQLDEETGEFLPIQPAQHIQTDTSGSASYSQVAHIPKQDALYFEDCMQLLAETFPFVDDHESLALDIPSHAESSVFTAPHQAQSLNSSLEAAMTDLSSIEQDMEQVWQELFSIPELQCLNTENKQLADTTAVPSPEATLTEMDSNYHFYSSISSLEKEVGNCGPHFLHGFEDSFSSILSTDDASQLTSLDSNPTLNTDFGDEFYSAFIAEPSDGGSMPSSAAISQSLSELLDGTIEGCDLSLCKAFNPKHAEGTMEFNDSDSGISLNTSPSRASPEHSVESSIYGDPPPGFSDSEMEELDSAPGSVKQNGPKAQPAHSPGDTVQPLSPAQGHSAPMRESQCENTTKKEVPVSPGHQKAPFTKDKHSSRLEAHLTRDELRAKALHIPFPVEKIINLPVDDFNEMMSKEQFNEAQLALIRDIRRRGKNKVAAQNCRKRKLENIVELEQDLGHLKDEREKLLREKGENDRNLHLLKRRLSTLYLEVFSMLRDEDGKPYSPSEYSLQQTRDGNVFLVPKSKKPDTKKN
The series can be described thus: Activation of Nrf2 in mouse BV-2 cells assessed as upregulation of TrxR1 protein expression after 24 hrs by Western blot analysis. It counts as cell-based. To be noted: filed as activator, dose 2.5-10 µM.

The subject of series [2] is PC-12. Kind of series: Protection against 6-OHDA-induced apoptosis in rat PC-12 cells assessed as cell rescue pretreated for 12 hrs followed by 6-OHDA challenge by Hoechst 33342 staining based confocal microscopic analysis. It counts as functional. To be noted: dose 2.5-10 µM.
Series [3] in a line: Glutathione peroxidase-like activity in pH 7.5 potassium phosphate buffer assessed as catalytic reduction of H2O2 by measuring initial velocity at 25 degreeC using GSH in presence of NADPH by UV absorbance analysis (reference value: 30.41+/- 2.06 microM/min). It counts as functional.
Series [4] deals with PC-12. The series can be described thus: Protection against H2O2-induced apoptosis in rat PC-12 cells assessed as necrotic cells at 10 uM pretreated for 12 hrs followed by H2O2 challenge by annexin V FITC/propidium iodide staining based flow cytometry (reference value: 3.7 %). It counts as functional. A general note: Flow cytometry measures light scatter and fluorescence of single cells or particles in a stream.

Series [5] has as its system PC-12. Kind of series: Protection against 6-OHDA-induced apoptosis in rat PC-12 cells assessed as late apoptotic cells at 2.5 uM pretreated for 12 hrs followed by 6-OHDA challenge by annexin V FITC/propidium iodide staining based flow cytometry (reference value: 17.3 %). It counts as functional.
The test system of another series is BV-2. Kind of series: Antiinflammatory activity in mouse BV-2 cells transfected with Nrf2 siRNA assessed as inhibition of LPS-induced IL-6 production at 10 uM pretreated with compound for 2 hrs followed by LPS stimulation and further incubated for 18 hrs. It counts as functional, cell-based. To be noted: time 20.0 hrs.
Series [6] relates to PC-12. The series can be described thus: Protection against H2O2-induced apoptosis in rat PC-12 cells assessed as necrotic cells at 2.5 uM pretreated for 12 hrs followed by H2O2 challenge by annexin V FITC/propidium iodide staining based flow cytometry (reference value: 3.7 %). It counts as functional.
Series [7] has as its system PC-12. Kind of series: Cytoprotective activity against H2O2- induced cell death in rat PC-12 cells assessed as increase in viable cells pretreated for 12 hrs followed by H2O2 challenge by MTT assay. It counts as functional, cell-based. The settings on record: dose 2.5-10 µM.
The target of series [8] is T1, Nuclear factor erythroid 2-related factor 2 (Mus musculus). Kind of series: Activation of Nrf2 in mouse BV-2 cells assessed as upregulation of NQO1 protein expression after 24 hrs by Western blot analysis. The settings on record: filed as activator, dose 2.5-10 µM. It counts as cell-based. (In general: In western blotting, separated proteins are transferred to a membrane and probed.)

The test system of series [9] is PC-12. The series can be described thus: Protection against 6-OHDA-induced apoptosis in rat PC-12 cells assessed as early apoptotic cells at 2.5 uM pretreated for 12 hrs followed by 6-OHDA challenge by annexin V FITC/propidium iodide staining based flow cytometry (reference value: 2.4 %). It counts as functional.
Series [10] concerns PC-12. The series can be described thus: Protection against H2O2-induced ROS accumulation in rat PC-12 cells assessed as intracellular ROS level by measuring mean fluorescence intensity pretreated for 12 hrs followed by H2O2 challenge by DCFH-DA staining based flow cytometry. It counts as functional, cell-based. To be noted: dose 2.5-10 µM.
The subject of series [11] is PC-12. Kind of series: Protection against H2O2-induced apoptosis in rat PC-12 cells assessed as viable cells at 2.5 uM pretreated for 12 hrs followed by H2O2 challenge by annexin V FITC/propidium iodide staining based flow cytometry (reference value: 73.3 %). To be noted: read-out: Activity. It counts as functional.
The subject of series [12] is PC-12. Kind of series: Cytoprotective activity against H2O2- induced cell death in rat PC-12 cells assessed as increase in viable cells at 10 uM pretreated for 12 hrs followed by H2O2 challenge by MTT assay relative to control. It counts as functional.
For series [13], the system named is PC-12. Kind of series: Protection against H2O2-induced apoptosis in rat PC-12 cells assessed as early apoptic cells at 2.5 uM pretreated for 12 hrs followed by H2O2 challenge by annexin V FITC/propidium iodide staining based flow cytometry (reference value: 2.2 %). It counts as functional.
The test system of series [14] is PC-12. Kind of series: Protection against 6-OHDA-induced apoptosis in rat PC-12 cells assessed as viable cells at 5 uM pretreated for 12 hrs followed by 6-OHDA challenge by annexin V FITC/propidium iodide staining based flow cytometry (reference value: 76.7 %). It counts as functional. To be noted: read-out: Activity.
For series [15], the system named is PC-12. The series can be described thus: Protection against 6-OHDA-induced ROS accumulation in rat PC-12 cells assessed as intracellular ROS level by measuring mean fluorescence intensity pretreated for 12 hrs followed by 6-OHDA challenge by DCFH-DA staining based flow cytometry. It counts as functional, cell-based. The settings on record: dose 2.5-10 µM.
Series [16] deals with PC-12. Kind of series: Cytoprotective activity against 6-OHDA induced cell death in rat PC-12 cells assessed as increase in viable cells at 10 uM pretreated for 12 hrs followed by 6-OHDA challenge by MTT assay relative to control. It counts as functional. A general note: Tetrazolium dyes change colour on reduction, which living cells bring about.
The target in series [17] is T1, Nuclear factor erythroid 2-related factor 2 (Mus musculus). Kind of series: Activation of Nrf2 in mouse BV-2 cells assessed as decrease in LPS-induced IL-6 production pretreated with compound for 2 hrs followed by LPS stimulation and further incubated for 18 hrs […]. It counts as cell-based. To be noted: filed as activator, dose 10.0 µM, time 20.0 hrs.

The test system of series [18] is PC-12. Kind of series: Cytotoxicity against rat PC-12 cells at 25 uM incubated for 24 hrs by MTT assay. It counts as cell-based. To be noted: pc-12, 24 h.
Series [19] deals with PC-12. The series can be described thus: Protection against H2O2-induced apoptosis in rat PC-12 cells assessed as cell rescue pretreated for 12 hrs followed by H2O2 challenge by Hoechst 33342 staining based confocal microscopic analysis. The settings on record: dose 2.5-10 µM. It counts as functional.
The test system of series [20] is PC-12. Kind of series: Prevention of H2O2-induced calcium overload in rat PC-12 cells assessed as reduction in intracellular free calcium pretreated with compound for 12 hrs followed by H2O2 challenge by Fluo-3AM based fluorescence assay. It counts as functional, cell-based. To be noted: dose 2.5-10 µM.
The subject of series [21] is PC-12. Kind of series: Protection against 6-OHDA-induced apoptosis in rat PC-12 cells assessed as viable cells at 10 uM pretreated for 12 hrs followed by 6-OHDA challenge by annexin V FITC/propidium iodide staining based flow cytometry (reference value: 76.7 %). It counts as functional. To be noted: read-out: Activity.
Series [22] has as its system PC-12. Kind of series: Cytoprotective activity against H2O2-induced oxidative stress in rat PC-12 cells assessed as decrease in cell death at 10 uM pretreated with brusatol for 1 hr followed by compound treatment for 12 hrs and subsequent H2O2 challenge by MTT assay. It counts as functional, cell-based.
Series [23] relates to PC-12. The series can be described thus: Activation of Keap1-Nrf2-ARE pathway in rat PC-12 assessed as upregulation of HO-1 protein expression measured after 12 hrs by Western blot analysis. To be noted: filed as activator, dose 2.5-10 µM.

The source made the active and inactive calls. No cut-off for these calls is given here.

On to `CN1C(N)=N[C@](C)(c2cc(-n3[se]c4cc(F)ccc4c3=O)ccc2F)CS1(=O)=O`, for which the Activity result in [1] was “Dose-Dependent Effect”; with PC-12 [2] it was “Dose-Dependent Effect”; in the series with PC-12 [4] it was 0.6%; in the series with PC-12 [5] it was 14.9%; in the series with PC-12 [6], 2.1%; in the series with PC-12 [7], “Dose-Dependent Effect”. The Activity entry in series [8] was “Dose-Dependent Effect”; in the series on PC-12 [9], 2%; with PC-12 [10] it was “Dose-Dependent Effect”; in the series on PC-12 [12] it was 80%; with PC-12 [13], 2%; in the series on PC-12 [15], “Dose-Dependent Effect”. For the same compound, the Activity in the series on PC-12 [16] was 77%; in the series on PC-12 [18], “Non-Toxic”; with PC-12 [19], “Dose-Dependent Effect”; with PC-12 [20], “Dose-Dependent Effect”. The V0 in [3] stood at 183 µM/min. For the same compound, the result in the series with BV-2 and with PC-12 [22] was inactive. For the same compound, the viability at 2.5 µM with PC-12 [11] came to 83.6%. Also, the viability at 5 µM in the series with PC-12 [14] worked out at 83.4%. In addition, the outcome (in [17]; with PC-12 [23]) was Active. The viability at 10 µM in the series with PC-12 [21] was 90.5%.
